Structures can show the parent of a compound that is named as a salt.
Assays:
[1] = test system: MV4;11 cells; experiment: MV4;11 in vitro inhibition of proliferation assay (CellTiter-Glo, 72 hours); format: cell-based; details: Homo sapiens, MV4-11, 72 h, IC50 class, read-out: Inhibitory activity of cell proliferation MV4;11
Excerpt: Biological Test Example 2: MV4;11 In Vitro Inhibition of Proliferation Assay
The MV4;11 cell lines were purchased from the cell bank of the Chinese Academy of Sciences, IMDM medium (Gibco, catalog number 12440), fetal bovine serum (Gibco, catalog number 10099141C), penicillin-streptomycin antibiotics (Gibco, catalog number 15140122), DMSO (Sigma, catalog number D2650), Celltiter-Glo kit (CTG) (Promega, catalog number G7573), 384-well clear flat-bottom black cell culture plate (Corning, catalog number 3764), D300e digital dispenser (Tecan, catalog number D300e), SpectraMax i3x microplate reader (MOLECULAR DEVICES, catalog number i3x)
MV4;11 cell was cultivated in IMDM, 10% fetal bovine serum, 1% penicillin-streptomycin antibiotics, and cell density was kept less than 1.0*10E6 cells per ml to ensure that it was always in logarithmic growth phase. Cell viability was greater than 95%.
The compounds to be tested was diluted by 3 times from 10 uM with DMSO to 9 concentrations. 60 nl diluted compound was added to the cell culture plate and three duplicates were set up.
The prepared MV4;11 cell suspension was added to the 384-well plate, and 20 microliters of cell suspension was added per well, i.e., each well contained 2000 MV4;11 cells, of which the final concentration of DMSO was 0.3%. The cell culture plate was placed in 37° C. and incubated in a 5% carbon dioxide incubator for 72 hours.
20 μL of Promega CellTiter-Glo reagent was added to per well, and the plate was incubated at room temperature for 10 minutes when the luminescence signals were stable. SpectraMax i3x microplate reader was used to read signals.
The original data was converted into inhibition rate, and the IC50 value (half inhibition concentration) of the compound was determined by fitting the nonlinear four-parameter curve.

[2] = target: T1, FLT3 (Homo sapiens, UniProt P36888); experiment: FLT3 kinase in vitro inhibitory activity experiment (Caliper mobility shift, conversion rate); format: biochemical; details: IC50 class, read-out: Enzyme activity FLT3
T1 construct: purchased Carna 08-145
T1 sequence (P36888 27-993): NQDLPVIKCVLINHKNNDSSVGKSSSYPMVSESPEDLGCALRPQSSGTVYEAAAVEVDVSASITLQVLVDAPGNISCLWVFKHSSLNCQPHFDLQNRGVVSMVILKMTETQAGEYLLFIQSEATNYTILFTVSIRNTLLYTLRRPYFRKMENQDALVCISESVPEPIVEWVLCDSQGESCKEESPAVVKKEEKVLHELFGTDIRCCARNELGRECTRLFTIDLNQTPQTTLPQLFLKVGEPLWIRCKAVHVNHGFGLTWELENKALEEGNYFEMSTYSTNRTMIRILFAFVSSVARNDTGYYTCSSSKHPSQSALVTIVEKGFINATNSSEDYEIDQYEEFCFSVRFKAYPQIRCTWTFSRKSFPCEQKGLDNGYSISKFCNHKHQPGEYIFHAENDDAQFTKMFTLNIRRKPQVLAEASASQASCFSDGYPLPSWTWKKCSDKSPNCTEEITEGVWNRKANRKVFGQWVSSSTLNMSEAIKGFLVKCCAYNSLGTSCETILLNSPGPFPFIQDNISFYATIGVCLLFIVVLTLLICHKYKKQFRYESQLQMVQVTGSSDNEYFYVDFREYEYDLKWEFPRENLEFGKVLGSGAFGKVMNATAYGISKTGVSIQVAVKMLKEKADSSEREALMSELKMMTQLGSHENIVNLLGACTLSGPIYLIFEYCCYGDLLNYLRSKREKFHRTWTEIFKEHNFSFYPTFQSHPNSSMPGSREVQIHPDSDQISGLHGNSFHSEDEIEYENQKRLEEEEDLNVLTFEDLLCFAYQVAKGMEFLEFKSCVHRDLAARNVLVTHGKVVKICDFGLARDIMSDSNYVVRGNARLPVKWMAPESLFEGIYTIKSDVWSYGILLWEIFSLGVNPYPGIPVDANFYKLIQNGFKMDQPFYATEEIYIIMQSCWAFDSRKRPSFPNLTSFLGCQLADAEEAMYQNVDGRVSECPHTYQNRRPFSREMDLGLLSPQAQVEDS
Description: Biological Test Example 1: FLT3 Kinase In Vitro Inhibitory Activity Experiment
Centrifuge (manufacturer: Eppendorf, model: 5430), microplate reader (manufacturer: Perkin Elmer, model: Caliper EZ Reader II), Echo 550 (manufacturer: Labcyte, model: Echo 550)
1. Kinase Reaction Process
• (1) 1×Kinase buffer was prepared. • (2) Preparation of the serial compound dilutions: the initial stock (the concentration of the tested compound was 1 μM) was diluted by 3-fold into 10 concentrations, and was single-well detected. The compounds were series diluted to solutions of 10 different concentration (100-folds final concentration) in 384-well plates. 250 nl of solution was transferred to each well of 384-well plate by Echo550. 100% DMSO (250 nl) was added to negative control wells and positive control wells respectively. • (3) Kinase solution (2.5 times final concentration) was prepared with 1×Kinase buffer. • (4) 10 μL of kinase solution (2.5 times final concentration) was added to compound wells and positive control wells respectively: 1×Kinase buffer (10 μL) was added to the negative control wells. • (5) The solution was centrifuged at 1000 rpm for 30 seconds, shaked and mixed, and incubated at room temperature for 10 minutes. • (6) The mixed solution of ATP and Kinase substrate 2 (25/15 times final concentration) was prepared with 1×Kinase buffer. • (7) 15 μL of mixed solution ATP and Kinase substrate 2 (25/15 times final concentration) was added to initiated the reaction. • (8) 384 well plate was centrifuged at 1000 rpm for 30 seconds, shaked and mixed, then incubated at room temperature for 30 minutes. • (9) Stop solution (30 μL) was added to stop kinase reaction, and the solution was centrifuged at 1000 rpm for 30 seconds, shaked and mixed. • (10) The conversion rate was read with Caliper EZ Reader II. 2. Data Analysis Formula for Calculation
Wherein: Conversion %_sample is the reading of the sample conversion; Conversion %_min: negative control well.

SMILES | IC50 [1] [nM] | IC50 [2] [nM]
CCc1nc2c(N)ncc(-c3cccc(OC)c3)c2nc1NC1CCOCC1 [Compound 3] | > 500 | 10 to 100
CCc1nc2c(N)ncc(-c3ccc(N4CCC(N5CCN(C)CC5)CC4)cc3)c2nc1NC1CCOCC1 [Compound 7] | 10 to 100 | ≤ 10
CCc1nc2c(N)ncc(-c3ccc(N4CCC(N5CCN(C)CC5)CC4)c(OC)c3)c2nc1NC1CCOCC1 [Compound 8, 3-ethyl-8-(3-methoxy-4-(4-(4-methylpiperazin-1-yl)piperidin-1-yl)phenyl)-N2-(tetrahydropyran-4-yl)pyrido[3,4-b]pyrazine-2,5-diamine trihydrochloride] | 10 to 100 | ≤ 10
CCc1nc2c(Cl)ncc(-c3ccc(N4CCC(N5CCNCC5)CC4)c(OC)c3)c2nc1NC1CCOCC1 [Compound 11] | > 500 | 10 to 100
CCc1nc2c(N)ncc(-c3ccc(N4CCC(N5CCN(C)CC5)CC4)c(C)c3)c2nc1NC1CCOCC1 [Compound 13] | 10 to 100 | ≤ 10
CCc1nc2c(N)ncc(-c3ccc(N4CCC(N5CCN(C)CC5)CC4)c(F)c3)c2nc1NC1CCOCC1 [Compound 14] | 10 to 100 | ≤ 10
CCc1nc2c(N)ncc(-c3ccc(N4CCC(N5CCN(C)CC5)CC4)c(C#N)c3)c2nc1NC1CCOCC1 [Compound 15] | 10 to 100 | ≤ 10
CCc1nc2c(N)ncc(-c3ccc(N4CCC(N5CCN(C)CC5)CC4)c(C(F)(F)F)c3)c2nc1NC1CCOCC1 [Compound 16] | 10 to 100 | ≤ 10
CCc1nc2c(N)ncc(-c3ccc(N4CCC(N5CCN(C)CC5)CC4)c(OC(F)(F)F)c3)c2nc1NC1CCOCC1 [Compound 17] | 10 to 100 | ≤ 10
CCc1nc2c(N)ncc(-c3ccc(N4CCC(N5CCN(C)CC5)CC4)nc3)c2nc1NC1CCOCC1 [Compound 21] | 100 to 500 | 10 to 100
CCc1nc2c(N)ncc(-c3ccc(N4CCC(N5CCN(C)CC5)CC4)c(OC(C)C)c3)c2nc1NC1CCOCC1 [Compound 22] | 10 to 100 | ≤ 10
CCc1nc2c(N)ncc(-c3ccc(N4CCC(N5CCN(C)CC5)CC4)c(OCCOC)c3)c2nc1NC1CCOCC1 [Compound 23] | 10 to 100 | ≤ 10
COc1cc(-c2cnc(N)c3nc(C)c(NC4CCOCC4)nc23)ccc1N1CCC(N2CCN(C)CC2)CC1 [Compound 26] | 100 to 500 | 10 to 100
COc1cc(-c2cnc(N)c3nc(C(C)C)c(NC4CCOCC4)nc23)ccc1N1CCC(N2CCN(C)CC2)CC1 [Compound 27] | 10 to 100 | ≤ 10
CCCc1nc2c(N)ncc(-c3ccc(N4CCC(N5CCN(C)CC5)CC4)c(OC)c3)c2nc1NC1CCOCC1 [Compound 28] | 10 to 100 | ≤ 10
CCc1nc2c(N)ncc(-c3ccc(N4CCC5(CCN(C)CC5)CC4)c(C)c3)c2nc1NC1CCOCC1 [Compound 31] | 10 to 100 | ≤ 10
CCc1nc2c(N)ncc(-c3ccc(N4CCC5(CCN(C)CC5)CC4)c(OC)c3)c2nc1NC1CCOCC1 [Compound 32] | 10 to 100 | ≤ 10

SMILES | IC50 [1] [nM] | IC50 [2] [nM]
CCc1nc2c(N)ncc(-c3ccc(N4CCC5(CC4)CN(C)C5)c(OC)c3)c2nc1NC1CCOCC1 [Compound 33] | 10 to 100 | ≤ 10
CCc1nc2c(N)ncc(-c3ccc(N4CCC(N5CCNCC5)CC4)c(OC)c3)c2nc1NC1CCOCC1 [Compound 35] | 10 to 100 | ≤ 10
CCc1nc2c(N)ncc(-c3ccc(N4CCN(C5CCN(C)CC5)CC4)c(OC)c3)c2nc1NC1CCOCC1 [Compound 36] | 10 to 100 | ≤ 10
CCc1nc2c(N)ncc(-c3ccc(N4CCN(C)CC4)c(OC)c3)c2nc1NC1CCOCC1 [Compound 37] | 10 to 100 | ≤ 10
CCc1nc2c(N)ncc(-c3ccc(N4CCOCC4)c(OC)c3)c2nc1NC1CCOCC1 [Compound 38] | 10 to 100 | ≤ 10
CCc1nc2c(N)ncc(-c3ccc(N4CCC(O)CC4)c(OC)c3)c2nc1NC1CCOCC1 [Compound 39] | 10 to 100 | ≤ 10
CCc1nc2c(N)ncc(-c3cccc(CN4CCC(N5CCN(C)CC5)CC4)c3)c2nc1NC1CCOCC1 [Compound 43, 3-ethyl-8-(3-((4-(4-methylpiperazine-1-yl)piperidine-1-yl)methyl)phenyl)-N2-(tetrahydro-2H-pyran-4-yl)pyrido[3,4-b]pyrazine-2,5-diamine] | 100 to 500 | 10 to 100
CCc1nc2c(N)ncc(-c3ccc(CN4CCC(N5CCN(C)CC5)CC4)c(OC)c3)c2nc1NC1CCOCC1 [Compound 44] | > 500 | 10 to 100
CCc1nc2c(N)ncc(-c3ccc(N4CCC(CN5CCN(C)CC5)CC4)c(OC)c3)c2nc1NC1CCOCC1 [Compound 45, 3-ethyl-8-(3-methoxy-4-(4-((4-methylpiperazine-1-yl)methyl)piperidine-1-yl)phenyl)-N2-(tetrahydro-2H-pyran-4-yl)pyridino[3,4-b]pyrazine-2,5-diamine] | 10 to 100 | ≤ 10
CCc1nc2c(N)ncc(-c3ccc(N4CCC(N5CCN(C)CC5)C4)c(OC)c3)c2nc1NC1CCOCC1 (stereo not drawn) [Compound 46] | 10 to 100 | ≤ 10
CCc1nc2c(N)ncc(-c3ccc(N4CCC(N(C)CCN(C)C)CC4)c(OC)c3)c2nc1NC1CCOCC1 [Compound 48] | 10 to 100 | ≤ 10
CCc1nc2c(N)ncc(-c3cnn(C4CCNCC4)c3)c2nc1NC1CCOCC1 [Compound 58] | 10 to 100 | ≤ 10
CCc1nc2c(N)ncc(-c3ccc(N4CCC(N5CCN(C)CC5)CC4)c(OC)c3)c2nc1N[C@H]1CC[C@H](O)CC1 [Compound 65] | 10 to 100 | ≤ 10
CCc1nc2c(N)ncc(-c3ccc(N4CCC(N5CCN(C)CC5)CC4)c(OC)c3)c2nc1NC1CCN(C)CC1 [Compound 66] | 10 to 100 | ≤ 10
CCc1nc2c(N)ncc(-c3ccc(N4CCC(N5CCN(C)CC5)CC4)c(OC)c3)c2nc1NC1CCC(O)C1 (stereo not drawn) [Compound 67] | 10 to 100 | ≤ 10
CCc1nc2c(N)ncc(-c3ccc(N4CCC(N5CCN(C)CC5)CC4)c(OC)c3)c2nc1NCC(C)(C)O [Compound 68] | 10 to 100 | ≤ 10
